The values below come from US20130197043A1, “USE OF THE FETAL REPROGRAMMING OF A PPAR AGONIST” (SNU R&DB FOUNDATION, priority 2010, published 2013).

Assay [1] has as its target T1, hPPARa (Homo sapiens, UniProt Q07869).
T1 construct: expressed in transfected cells; host or cells: CV-1 cells
T1 sequence (Q07869 1-468): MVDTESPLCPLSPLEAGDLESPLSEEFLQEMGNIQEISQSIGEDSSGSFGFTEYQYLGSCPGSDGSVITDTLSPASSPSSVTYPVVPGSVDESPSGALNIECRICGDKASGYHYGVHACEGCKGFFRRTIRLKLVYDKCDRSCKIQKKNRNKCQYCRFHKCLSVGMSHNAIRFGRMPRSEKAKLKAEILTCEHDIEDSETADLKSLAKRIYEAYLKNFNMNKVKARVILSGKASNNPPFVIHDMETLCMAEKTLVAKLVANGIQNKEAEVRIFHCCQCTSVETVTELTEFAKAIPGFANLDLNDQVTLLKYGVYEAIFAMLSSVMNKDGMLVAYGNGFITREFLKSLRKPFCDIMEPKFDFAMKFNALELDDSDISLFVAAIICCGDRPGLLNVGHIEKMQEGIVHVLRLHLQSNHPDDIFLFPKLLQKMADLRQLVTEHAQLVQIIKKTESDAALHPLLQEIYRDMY
The experiment in a line: Transfection assay in CV-1 cells, hPPARa. Type of assay: cell-based. The note with it: luciferase reporter. As to the method: (§1) This assay was conducted by using CV-1 cells. The cells were cultured on a 96-well plate with a DMEM medium containing 10% FBS, DBS (delipidated), and 1% penicillin/streptomycin in 37° C. of an incubator 5% of carbon dioxide. Test was conducted in four stages of cell inoculation, transfection, treatment with the developed material, and result confirmation. The CV-1 cells were inoculated on the 96-well plate at a cell density at 5,000 cells/well, and after 24 hours, transfection was performed. PPARs plasmid DNA, reporter DNA, and β-galactosidase DNA were mixed with a transfection reagent, and then used to treat the cells. The developed material was dissolved in dimethylsulfoxide (DMSO), and then was used to treat the cells by using media at various concentrations. After 24 hours of culturing in an incubator, the cells were lysed with a lysis buffer and luciferase activity and β-galactosidase activity were measured using a luminometer and a microplate reader. The measured luciferase value was calibrated with the β-galactosidase value, and this value was depicted on a graph and EC50 was determined.
(In a reporter assay the amount or activity of a reporter protein is the signal.)

In assay [2] the target is T2, hPPARg (Homo sapiens, UniProt P37231).
T2 construct: expressed in transfected cells; host or cells: CV-1 cells
T2 sequence (P37231 1-505): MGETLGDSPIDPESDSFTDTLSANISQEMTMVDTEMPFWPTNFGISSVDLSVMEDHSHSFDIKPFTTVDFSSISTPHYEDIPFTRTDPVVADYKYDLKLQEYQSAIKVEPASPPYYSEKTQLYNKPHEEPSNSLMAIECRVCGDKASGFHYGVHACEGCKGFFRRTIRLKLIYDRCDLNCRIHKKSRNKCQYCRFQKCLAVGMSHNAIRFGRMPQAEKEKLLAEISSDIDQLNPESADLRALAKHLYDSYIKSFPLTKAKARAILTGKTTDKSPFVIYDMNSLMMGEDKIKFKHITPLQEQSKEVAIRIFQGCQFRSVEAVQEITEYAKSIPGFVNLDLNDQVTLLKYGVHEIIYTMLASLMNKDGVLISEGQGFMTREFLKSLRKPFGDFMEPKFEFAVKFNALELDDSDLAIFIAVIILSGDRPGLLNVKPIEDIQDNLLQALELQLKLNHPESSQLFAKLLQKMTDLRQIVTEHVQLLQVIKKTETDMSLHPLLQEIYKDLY
As to the kind of experiment: Transfection assay in CV-1 cells, hPPARg. Type of assay: cell-based. The note with it: luciferase reporter. The method, then:
as §1

Assay [3] has as its system 10-week old C57BL/6 mice. The experiment in a line: Treadmill endurance test of adult mice exercised while administered. In kind it is in vivo. The note with it: 10 mg/kg/day oral with exercise over 30 days. The method, then: In addition, it was verified that the developed material was effective in enhancing muscle endurance and improving muscular function. 10-week old C57BL/6 mice were exercised while being orally administered with the developed material at a concentration of 10 mg/kg/day. The mice were exercised using a treadmill for 30 minutes once each day over 30 days. The mice were exercised under exercise conditions of 2 meter/min for 5 minutes, 5 meters/min for 5 minutes, 8 meters/min for 5 minutes, and 20 meters/min for 5 minutes, respectively. By the end of the test, muscle endurance enhancement and muscular function improvement effects were tested by using a treadmill.

Assay [4] relates to HDL in serum. The experiment in a line: High-density lipoprotein cholesterol (HDL) in serum. In kind it is in vivo. The note with it: mice fed 10% fat feedstuff over 6 weeks. The source says:
High-density lipoprotein cholesterol (HDL) has been known to play an important role in treating lipid metabolic disorders such as arteriosclerosis and hyperlipidemia while lowering the cholesterol level of an epidermal cell and mitigating an inflammatory reaction. Serum was separated from the mice fed over a 6-week period of feedstuff containing 10% fat in order to confirm the high-density cholesterol increase effect of Compounds 5 and 9, which were the developed materials of the present invention.

In assay [5] the test system is ApoE−/− mice. The experiment in a line: Arteriosclerosis prevention and treatment, en face analysis of arteries. In kind it is in vivo. The note with it: 14 weeks feedstuff, dosed over the last 4 weeks. The method, then:
The in vivo test using ApoE−/− mice was conducted in order to verify the arteriosclerosis prevention and treatment effect of Compounds 5 and 9, the developed materials of the present invention. ApoE−/− mice, as an arteriosclerosis disease model, were fed with […] feedstuff (21% high fat and 1.25% high cholesterol feedstuff) over 14 weeks, to thereby induce arteriosclerosis, and then Compounds 5 and 9 were administered to the mice over the last 4 weeks. The medicine treatment manner was adopted. Arteries of the mice were resected, and then analyzed by the en face method. As the result, it was confirmed that Compounds 5 and 9 had 23% and 18% decreases in occurrence of arteriosclerosis, respectively.

In assay [6] the test system is C57BL/6 mice with obesity induced by 35% fat feedstuff. The experiment in a line: Obesity suppression effect in high-fat diet mice. In kind it is in vivo. The note with it: 10 mg/kg/day oral, 60-day high-fat diet (35% fat). The method, then: Test using mice was conducted in order to confirm the in vivo effect of the material according to the present invention. 8-week old C57BL/6 mice were used, and feedstuff containing 35% fat was used to induce obesity. A. vehicle and Compounds 5 and […] were orally administered. over 60-day period of high-fat diet.

As for `Cc1cc(SC(Cc2ccc(-c3ccccc3)cc2)c2sc(-c3ccc(C(F)(F)F)cc3)nc2C)ccc1OCC(=O)O` (centres unmarked) [Compound 5], the “EC50 hPPARa” value in assay [1] is given as “ia”. Also, in assay [2], the “EC50 hPPARg” value is recorded as “ia”. Further, in assay [3], the “increase in the running distance versus control” value was 1.8 fold and the “increase in the running time versus control” value was determined as 1.7 fold. In addition, the “HDL increase in serum” value in assay [4] is 68%. In addition, the “decrease in occurrence of arteriosclerosis” value in assay [5] amounted to 23%. The “obesity suppression effect versus vehicle control” value in assay [6] was determined as 35%.
On to `Cc1cc(SC(Cc2ccc(-c3ccc(F)cc3)cc2)c2sc(-c3ccc(C(F)(F)F)cc3)nc2C)ccc1OCC(=O)O` (centres unmarked) [Compound 9], for which, in assay [1], the “EC50 hPPARa” value is given as “ia”. Also, in assay [2], the “EC50 hPPARg” value is reported as “ia”. In assay [3], the “increase in the running distance versus control” value came out at 1.5 fold and the “increase in the running time versus control” value was 1.5 fold. For the same molecule, the “HDL increase in serum” value in assay [4] is given as 62%. Further, the “decrease in occurrence of arteriosclerosis” value in assay [5] came to 18%. Moreover, in assay [6], the “obesity suppression effect versus vehicle control” value is listed as 33%.
